Source: ChEMBL document CHEMBL5506022, “Discovery of Novel Dual Inhibitors Targeting Mutant IDH1 and NAMPT for the Treatment of Glioma with IDH1Mutation” (J Med Chem, 2024)
Active and inactive are the calls of the source. No cut-off for these calls is given here.

Key:
[1] = AUC in ICR mouse plasma at 5 mg/kg, iv measured after 24 hrs by LC-MS/MS analysis; assay type: ADME, organism-based
U-87 MG [2] = assay type: functional, Homo sapiens, U-87MG ATCC; conditions: dose 0.5 µM; time 48 hrs
U-87 MG [3] = assay: Antiproliferative activity against human U-87 MG cells harboring wildtype IDH1 assessed as inhibition of cell growth incubated for 48 hrs by CCK8 assay; assay type: functional, cell-based, U-87MG ATCC
[4] = Ratio of drug concentration in ICR mouse brain to plasma at 5 mg/kg, iv measured after 24 hrs by LC-MS/MS analysis; assay type: ADME, organism-based; conditions: read-out: BPR
U-87 MG [5] = assay type: functional, organism-based; conditions: Homo sapiens; U-87MG ATCC; dose 10-40 mg/kg, route iv, time 35.0 day
[6] = target: Isocitrate dehydrogenase [NADP], mitochondrial (Homo sapiens, UniProt P48735, R140Q); assay: Inhibition of IDH2 R140Q mutant (unknown origin) using alpha-ketoglutarate as substrate incubated in presence of NADPH by Envision multimode plate reader analysis
U-87MG ATCC [7] = assay: Effect on intracellular NADP+ level in human U-87 MG cells harboring wildtype IDH1; assay type: functional, cell-based
U-87MG ATCC [8] = assay type: functional, cell-based; conditions: Homo sapiens, dose 0.5-2 µM, time 24.0 hrs
U-87 MG [9] = assay: Antiproliferative activity against human U-87 MG cells harboring wildtype IDH1 assessed as inhibition of cell growth incubated for 72 hrs by CCK8 assay; assay type: functional, cell-based, U-87MG ATCC
[10] = Half-life in Sprague-Dawley rat at 1 mg/kg, iv measured after 24 hrs by LC-MS/MS analysis; assay type: ADME, organism-based; conditions: in vivo
[11] = target: T1, Isocitrate dehydrogenase [NADP], mitochondrial (Homo sapiens, UniProt P48735); assay: Inhibition of wildtype IDH2 (unknown origin) […] by Envision multimode plate reader analysis
T1 sequence (P48735 whole entry): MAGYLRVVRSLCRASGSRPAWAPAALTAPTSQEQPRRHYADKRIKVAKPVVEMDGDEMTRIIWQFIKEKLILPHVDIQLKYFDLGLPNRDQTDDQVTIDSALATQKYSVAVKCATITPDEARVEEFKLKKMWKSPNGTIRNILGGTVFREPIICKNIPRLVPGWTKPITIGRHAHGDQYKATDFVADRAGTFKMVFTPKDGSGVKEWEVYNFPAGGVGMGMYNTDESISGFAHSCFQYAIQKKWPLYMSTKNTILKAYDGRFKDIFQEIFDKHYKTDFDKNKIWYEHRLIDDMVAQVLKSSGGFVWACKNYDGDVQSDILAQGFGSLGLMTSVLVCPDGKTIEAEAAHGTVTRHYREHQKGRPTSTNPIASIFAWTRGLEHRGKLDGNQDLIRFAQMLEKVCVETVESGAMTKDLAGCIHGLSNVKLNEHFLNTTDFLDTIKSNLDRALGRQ

[12] = Permeability of compound by PAMPA-BBB assay; assay type: ADME; conditions: read-out: permeability
[13] = target: T2, Nicotinamide phosphoribosyltransferase (Homo sapiens, UniProt P43490)
Target sequence in this assay (P43490 whole entry): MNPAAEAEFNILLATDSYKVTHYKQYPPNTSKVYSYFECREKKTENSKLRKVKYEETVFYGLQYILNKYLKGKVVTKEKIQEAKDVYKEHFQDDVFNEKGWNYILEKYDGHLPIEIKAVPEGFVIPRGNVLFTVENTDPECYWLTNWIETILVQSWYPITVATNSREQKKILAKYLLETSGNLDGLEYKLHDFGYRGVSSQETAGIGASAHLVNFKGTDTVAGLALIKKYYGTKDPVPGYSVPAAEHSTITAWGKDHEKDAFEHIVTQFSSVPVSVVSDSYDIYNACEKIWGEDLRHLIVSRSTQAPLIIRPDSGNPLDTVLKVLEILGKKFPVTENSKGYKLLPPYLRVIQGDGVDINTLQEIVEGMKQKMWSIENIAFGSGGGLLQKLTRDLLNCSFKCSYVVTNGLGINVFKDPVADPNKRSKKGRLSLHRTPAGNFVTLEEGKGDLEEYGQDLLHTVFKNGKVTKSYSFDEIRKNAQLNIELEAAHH

U-87 MG [14] = assay: Antiproliferative activity against human U-87 MG cells harboring wildtype IDH1 assessed as inhibition of cell growth incubated for 24 hrs by CCK8 assay; assay type: functional, cell-based, U-87MG ATCC
U-87 MG [15] = assay type: functional, Homo sapiens, U-87MG ATCC; conditions: dose 2 µM; time 48 hrs
[16] = target: Isocitrate dehydrogenase [NADP] cytoplasmic (Homo sapiens, UniProt O75874); assay: Inhibition of wildtype IDH1 (unknown origin) using DL-isocitrate as substrate incubated for 60 mins in presence of NADP by fluorescence microplate reader
[17] = AUC (0 to t) in Sprague-Dawley rat at 1 mg/kg, iv measured after 24 hrs by LC-MS/MS analysis; assay type: ADME, organism-based; conditions: in vivo
U-87MG ATCC [18] = assay type: functional, cell-based; conditions: Homo sapiens, dose 0.5-2 µM, time 48.0 hrs
[19] = target: Isocitrate dehydrogenase [NADP], mitochondrial (Homo sapiens, UniProt P48735, R172K); assay: Inhibition of IDH2 R172K mutant (unknown origin) using alpha-ketoglutarate as substrate incubated in presence of NADPH by Envision multimode plate reader analysis
[20] = target: Isocitrate dehydrogenase [NADP] cytoplasmic (Homo sapiens, UniProt O75874, R132C); assay: Inhibition of recombinant IDH1 R132C mutant (unknown origin) using alpha-ketoglutarate as substrate incubated for 60 mins in presence of NADPH by fluorescence microplate reader
U-87 MG [21] = assay type: functional, cell-based, U-87MG ATCC; conditions: Homo sapiens, 48 h
[22] = Oral bioavailability in Sprague-Dawley rat at 10 mg/kg measured after 24 hrs by LC-MS/MS analysis; assay type: ADME, organism-based; conditions: in vivo
[23] = Half-life in Sprague-Dawley rat at 10 mg/kg, po measured after 24 hrs by LC-MS/MS analysis; assay type: ADME, organism-based; conditions: in vivo
U-87MG ATCC [24] = assay type: functional, cell-based; conditions: Homo sapiens, dose 0.5-2 µM, time 24.0 hrs; remark: listed apart in the source
U-87MG ATCC [25] = assay type: functional, cell-based; conditions: Homo sapiens, dose 0.5-2 µM, time 24.0 hrs; remark: listed apart in the source
[26] = Tmax in Sprague-Dawley rat at 10 mg/kg, po measured after 24 hrs by LC-MS/MS analysis; assay type: ADME, organism-based; conditions: in vivo
U-87 MG [27] = assay type: functional, Homo sapiens, U-87MG ATCC; conditions: dose 2 µM; time 48 hrs; remark: listed apart in the source
U-87 MG [28] = assay type: functional, cell-based, U-87MG ATCC; conditions: Homo sapiens, 72 h
[29] = target: Voltage-gated inwardly rectifying potassium channel KCNH2 (Homo sapiens, UniProt Q12809); assay: Inhibition of human ERG in CHO cells incubated for 2.5 mins by Qpatch electrogram analysis; assay type: toxicity, cell-based
U-87 MG [30] = assay: cells; conditions: Homo sapiens, 48 h, read-out: Activity
U-87 MG [31] = assay type: functional, organism-based; conditions: Homo sapiens; U-87MG ATCC; dose 10-40 mg/kg, route iv, time 35.0 day; remark: listed apart in the source
[32] = AUC in ICR mouse brain at 5 mg/kg, iv measured after 24 hrs by LC-MS/MS analysis; assay type: ADME, organism-based
U-87 MG [33] = assay type: functional, U-87MG ATCC; conditions: Homo sapiens, time 48 hrs, read-out: Activity
[34] = AUC (0 to infinity) in Sprague-Dawley rat at 10 mg/kg, po measured after 24 hrs by LC-MS/MS analysis; assay type: ADME, organism-based; conditions: in vivo
[35] = target: T2, Nicotinamide phosphoribosyltransferase; assay type: cell-based; conditions: U-87 MG, dose 0.5 µM, time 6.0 hrs
Target sequence in this assay (P43490 whole entry, looked up): as the sequence (P43490 whole entry) above

U-87 MG [36] = assay type: functional, Homo sapiens, U-87MG ATCC; conditions: dose 20 mg/kg; route iv; time 35 day
[37] = AUC (0 to t) in Sprague-Dawley rat at 10 mg/kg, po measured after 24 hrs by LC-MS/MS analysis; assay type: ADME, organism-based; conditions: in vivo
[38] = Acute toxicity in ICR mouse at 400 mg/kg, po measured for 7 days; assay type: organism-based; conditions: in vivo, 168 h, time 7 day
U-87MG ATCC [39] = assay type: functional, cell-based; conditions: Homo sapiens, dose 0.5-2 µM, time 24.0 hrs; remark: listed apart in the source
U-87 MG [40] = assay type: functional, Homo sapiens, U-87MG ATCC; conditions: dose 0.5 µM; time 48 hrs; remark: listed apart in the source
U-87MG ATCC [41] = assay type: functional, cell-based; conditions: Homo sapiens, dose 0.5-2 µM, time 24.0 hrs; remark: listed apart in the source
U-87 MG [42] = assay type: functional, Homo sapiens, U-87MG ATCC; conditions: dose 0.5 µM; time 48 hrs; remark: listed apart in the source
U-87 MG [43] = assay type: functional, cell-based; conditions: Homo sapiens; U-87MG ATCC; dose 10-40 mg/kg, route iv, time 35.0 day
U-87MG ATCC [44] = assay type: functional, cell-based; conditions: Homo sapiens, dose 0.5-2 µM, time 48.0 hrs; remark: listed apart in the source
[45] = AUC (0 to infinity) in Sprague-Dawley rat at 1 mg/kg, iv measured after 24 hrs by LC-MS/MS analysis; assay type: ADME, organism-based; conditions: in vivo
[46] = target: T2, Nicotinamide phosphoribosyltransferase; assay type: cell-based; conditions: U-87 MG, dose 0.5-2 µM, time 48.0 hrs
Target sequence in this assay (P43490 whole entry, looked up): as the sequence (P43490 whole entry) above

U-87 MG [47] = assay type: functional, Homo sapiens, U-87MG ATCC; conditions: dose 40 mg/kg; route iv; time 35 day
U-87MG ATCC [48] = assay type: functional, cell-based; conditions: Homo sapiens, dose 0.5-2 µM, time 24.0 hrs; remark: listed apart in the source
U-87 MG [49] = assay type: functional, cell-based, U-87MG ATCC; conditions: Homo sapiens, 24 h
[50] = Cmax in Sprague-Dawley rat at 1 mg/kg, iv measured after 24 hrs by LC-MS/MS analysis; assay type: ADME, organism-based; conditions: in vivo
U-87 MG [51] = assay type: functional, U-87MG ATCC; conditions: Homo sapiens, time 48 hrs, read-out: Activity; remark: listed apart in the source
U-87 MG [52] = assay type: functional, Homo sapiens, U-87MG ATCC; conditions: dose 10 mg/kg; route iv; time 35 day
[53] = Clearance in Sprague-Dawley rat at 1 mg/kg, iv measured after 24 hrs by LC-MS/MS analysis; assay type: ADME, organism-based; conditions: in vivo
[54] = Tmax in Sprague-Dawley rat at 1 mg/kg, iv measured after 24 hrs by LC-MS/MS analysis; assay type: ADME, organism-based; conditions: in vivo
U-87 MG [55] = assay type: functional, Homo sapiens, U-87MG ATCC; conditions: dose 2 µM; time 48 hrs; remark: listed apart in the source
[56] = Cmax in Sprague-Dawley rat at 10 mg/kg, po measured after 24 hrs by LC-MS/MS analysis; assay type: ADME, organism-based; conditions: in vivo

Chain of Isocitrate dehydrogenase [NADP] cytoplasmic (Homo sapiens, UniProt O75874) (O75874 whole entry): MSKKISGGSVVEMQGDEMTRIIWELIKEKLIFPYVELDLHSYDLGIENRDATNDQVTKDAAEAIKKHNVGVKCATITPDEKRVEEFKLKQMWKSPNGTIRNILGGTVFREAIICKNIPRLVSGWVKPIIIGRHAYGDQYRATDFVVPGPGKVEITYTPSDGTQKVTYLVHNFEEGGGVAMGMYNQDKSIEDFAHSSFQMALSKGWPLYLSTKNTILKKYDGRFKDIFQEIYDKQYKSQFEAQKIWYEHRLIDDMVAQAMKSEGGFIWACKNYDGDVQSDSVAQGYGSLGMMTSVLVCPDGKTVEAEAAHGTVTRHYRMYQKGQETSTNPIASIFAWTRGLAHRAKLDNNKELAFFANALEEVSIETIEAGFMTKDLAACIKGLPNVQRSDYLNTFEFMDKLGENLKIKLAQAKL
Chain of Isocitrate dehydrogenase [NADP] cytoplasmic (Homo sapiens, UniProt O75874, R132C) (O75874 2-414 R132C limits assumed): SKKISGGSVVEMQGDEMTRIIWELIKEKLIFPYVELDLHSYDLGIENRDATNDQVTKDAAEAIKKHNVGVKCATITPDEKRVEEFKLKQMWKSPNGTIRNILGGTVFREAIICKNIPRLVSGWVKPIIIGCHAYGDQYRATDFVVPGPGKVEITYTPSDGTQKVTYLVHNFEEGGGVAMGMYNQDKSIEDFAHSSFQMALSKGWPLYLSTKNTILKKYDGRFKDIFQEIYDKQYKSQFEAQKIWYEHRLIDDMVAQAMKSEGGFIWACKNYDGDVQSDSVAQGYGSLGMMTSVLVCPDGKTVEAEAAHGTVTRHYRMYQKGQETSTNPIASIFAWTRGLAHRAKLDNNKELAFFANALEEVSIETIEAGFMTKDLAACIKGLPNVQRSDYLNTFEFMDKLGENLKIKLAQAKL
Chain of Voltage-gated inwardly rectifying potassium channel KCNH2 (Q12809 whole entry): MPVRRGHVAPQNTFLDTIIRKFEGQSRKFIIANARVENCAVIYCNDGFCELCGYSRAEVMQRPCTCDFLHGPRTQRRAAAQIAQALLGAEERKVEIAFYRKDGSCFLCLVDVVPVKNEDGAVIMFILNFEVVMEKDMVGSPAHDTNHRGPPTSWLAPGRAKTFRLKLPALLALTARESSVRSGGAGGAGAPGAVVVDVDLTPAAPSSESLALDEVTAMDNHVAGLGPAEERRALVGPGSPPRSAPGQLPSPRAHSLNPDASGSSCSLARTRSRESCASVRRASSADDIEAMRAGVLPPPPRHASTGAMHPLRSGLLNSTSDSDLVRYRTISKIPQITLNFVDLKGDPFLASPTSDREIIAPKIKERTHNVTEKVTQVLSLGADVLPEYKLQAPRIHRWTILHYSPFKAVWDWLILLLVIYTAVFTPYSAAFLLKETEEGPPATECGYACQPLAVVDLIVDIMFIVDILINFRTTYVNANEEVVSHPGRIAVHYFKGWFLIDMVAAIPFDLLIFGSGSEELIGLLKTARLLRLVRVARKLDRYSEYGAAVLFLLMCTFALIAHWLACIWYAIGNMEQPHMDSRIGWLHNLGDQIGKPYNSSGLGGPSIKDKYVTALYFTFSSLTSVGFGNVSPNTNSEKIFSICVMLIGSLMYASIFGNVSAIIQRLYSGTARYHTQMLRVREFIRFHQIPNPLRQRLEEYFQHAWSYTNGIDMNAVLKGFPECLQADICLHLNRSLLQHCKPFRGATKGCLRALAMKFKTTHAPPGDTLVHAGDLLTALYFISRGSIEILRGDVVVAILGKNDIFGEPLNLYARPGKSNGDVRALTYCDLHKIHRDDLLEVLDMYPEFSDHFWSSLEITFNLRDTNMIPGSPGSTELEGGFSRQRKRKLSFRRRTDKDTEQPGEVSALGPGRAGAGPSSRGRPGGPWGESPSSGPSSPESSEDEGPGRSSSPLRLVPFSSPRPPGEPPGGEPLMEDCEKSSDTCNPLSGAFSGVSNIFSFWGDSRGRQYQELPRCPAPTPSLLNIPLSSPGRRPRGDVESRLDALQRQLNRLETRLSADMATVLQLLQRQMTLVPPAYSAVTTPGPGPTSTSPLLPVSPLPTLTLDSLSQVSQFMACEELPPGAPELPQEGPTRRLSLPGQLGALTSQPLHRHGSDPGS
Chain of Isocitrate dehydrogenase [NADP], mitochondrial (Homo sapiens, UniProt P48735, R172K) (P48735 40-452 R172K limits assumed): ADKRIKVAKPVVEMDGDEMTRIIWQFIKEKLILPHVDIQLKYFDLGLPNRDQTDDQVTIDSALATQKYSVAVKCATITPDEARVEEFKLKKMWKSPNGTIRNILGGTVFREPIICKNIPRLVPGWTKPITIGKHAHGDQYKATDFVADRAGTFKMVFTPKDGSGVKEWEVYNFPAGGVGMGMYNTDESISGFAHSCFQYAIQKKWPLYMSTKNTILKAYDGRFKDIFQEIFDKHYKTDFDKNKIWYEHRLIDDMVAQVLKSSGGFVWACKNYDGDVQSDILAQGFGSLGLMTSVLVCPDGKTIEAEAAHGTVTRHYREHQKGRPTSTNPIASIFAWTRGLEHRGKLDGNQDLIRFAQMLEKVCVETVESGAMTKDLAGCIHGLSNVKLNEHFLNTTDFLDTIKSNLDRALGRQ
Chain of Isocitrate dehydrogenase [NADP], mitochondrial (Homo sapiens, UniProt P48735, R140Q) (P48735 40-452 R140Q limits assumed): as the sequence (P48735 40-452 R172K limits assumed) above, with R101Q, K133R counted along it

## C[C@H](Nc1nccc(N2C(=O)OC[C@@H]2[C@H](C)F)n1)c1ccc(-c2ccc(NC(=O)COc3cccnc3)cc2)cc1
[1]
  AUC at 24 h: 20300 ng·h/mL
U-87 MG [2]
  Activity: 30.6%
U-87 MG [3]
  IC50: 770 nM
[4]
  Kp at 24 h: 0.76
U-87 MG [5]
  Activity: Active
[6]
  IC50: > 100000 nM
U-87MG ATCC [7]
  Activity: inactive
U-87MG ATCC [8]
  Activity: Active
U-87 MG [9]
  IC50: 420 nM
[10]
  half-life: 69.6 min
[11]
  IC50: > 100000 nM
[12]
  Papp: 4.07 ×10⁻⁶ cm/s
[13]
  IC50: 49.2 nM
U-87 MG [14]
  IC50: 1260 nM
U-87 MG [15]
  Activity: 4.51%
[16]
  IC50: 8950 nM
[17]
  AUC(0-t) at 24 h: 1930 ng·h/mL
U-87MG ATCC [18]
  Activity: Dose-Dependent Effect
[19]
  IC50: > 100000 nM
[20]
  IC50: 65.1 nM
U-87 MG [21]
  IC50: 470 nM
[22]
  bioavailability: 4.75%
[23]
  half-life: 124 min
U-87MG ATCC [24]
  Activity: Active
U-87MG ATCC [25]
  Activity: Active
[26]
  Tmax: 45 min
U-87 MG [27]
  Activity: 35.4%
U-87 MG [28]
  IC50: 320 nM
[29]
  IC50: > 40000 nM
U-87 MG [30]
  viability at 1 µM: 35.5%
U-87 MG [31]
  Activity: Active
[32]
  AUC at 24 h: 15600 ng·h/mL
U-87 MG [33]
  viability at 2 µM: 34.7%
[34]
  AUC(0-inf): 921 ng·h/mL
[35]
  Activity: Active
U-87 MG [36]
  MST: 30.5 days
[37]
  AUC(0-t) at 24 h: 919 ng·h/mL
[38]
  Activity: Non-Toxic
U-87MG ATCC [39]
  Activity: Active
U-87 MG [40]
  Activity: 21.9%
U-87MG ATCC [41]
  Activity: Active
U-87 MG [42]
  Activity: 2.84%
U-87 MG [43]
  Activity: Dose-Dependent Effect
U-87MG ATCC [44]
  Activity: inactive
[45]
  AUC(0-inf): 1940 ng·h/mL
[46]
  inhibition: Dose-Dependent Effect
U-87 MG [47]
  MST: 34 days
U-87MG ATCC [48]
  Activity: Active
U-87 MG [49]
  IC50: 890 nM
[50]
  Cmax: 4070 ng/mL
U-87 MG [51]
  viability at 0.5 µM: 44.6%
U-87 MG [52]
  MST: 25.5 days
[53]
  clearance: 4.33 mL/min/kg
[54]
  Tmax: 1.98 min
U-87 MG [55]
  Activity: 25.5%
[56]
  Cmax: 867 ng/mL
